According to ChEMBL document CHEMBL1159019, “A strategy for identifying novel, mechanistically unique inhibitors of topoisomerase I” (J Nat Prod, 1992):

Experiments:
[1] = target: T1, DNA topoisomerase 1 (Homo sapiens, UniProt P11387); assay: Inhibition of human COLO201 cellular topoisomerase-1 mediated plasmid DNA cleavage by electrophoresis in presence of 70 units of enzyme
T1 sequence (P11387 whole entry): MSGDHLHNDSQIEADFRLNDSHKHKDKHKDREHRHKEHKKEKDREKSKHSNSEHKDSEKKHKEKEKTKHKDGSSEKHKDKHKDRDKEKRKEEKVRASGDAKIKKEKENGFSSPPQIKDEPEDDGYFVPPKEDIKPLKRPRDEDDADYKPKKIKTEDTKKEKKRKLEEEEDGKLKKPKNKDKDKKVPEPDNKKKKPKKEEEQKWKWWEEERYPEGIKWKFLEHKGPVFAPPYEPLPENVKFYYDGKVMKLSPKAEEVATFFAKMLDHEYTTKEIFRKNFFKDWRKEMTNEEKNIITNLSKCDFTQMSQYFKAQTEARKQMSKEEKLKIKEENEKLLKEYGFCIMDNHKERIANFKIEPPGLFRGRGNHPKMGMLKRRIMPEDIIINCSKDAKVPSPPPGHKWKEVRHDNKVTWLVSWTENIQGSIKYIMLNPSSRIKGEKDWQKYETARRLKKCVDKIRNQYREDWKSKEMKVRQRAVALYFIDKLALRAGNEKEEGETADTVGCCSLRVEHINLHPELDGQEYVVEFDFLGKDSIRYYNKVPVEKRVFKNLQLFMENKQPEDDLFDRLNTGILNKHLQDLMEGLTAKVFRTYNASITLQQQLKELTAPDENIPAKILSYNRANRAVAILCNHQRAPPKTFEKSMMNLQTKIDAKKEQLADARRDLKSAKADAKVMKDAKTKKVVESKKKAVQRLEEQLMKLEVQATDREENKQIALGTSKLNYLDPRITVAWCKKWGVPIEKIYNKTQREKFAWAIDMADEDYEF

[2] = target: T1, DNA topoisomerase 1; assay: Inhibition of human COLO201 cellular topoisomerase-1 mediated plasmid DNA cleavage by electrophoresis in presence of 14 units of enzyme

SMILES	IC50 [1]	IC50 [2]
O=C(O)C[C@@H]1C(=O)O[C@H]2[C@@H]3OC(=O)c4cc(O)c(O)c(O)c4-c4c(cc(O)c(O)c4O)C(=O)OC[C@H]2O[C@@H](OC(=O)c2cc(O)c(O)c(O)c2)[C@@H]3OC(=O)c2cc(O)c(O)c3c2[C@H]1[C@H](O)C(=O)O3 [CHEBULAGIC ACID]	100 nM	50 nM
O=C(O[C@@H]1O[C@@H]2COC(=O)c3cc(O)c(O)c(O)c3-c3c(cc(O)c(O)c3O)C(=O)O[C@H]([C@H]1O)[C@@H]2O)c1cc(O)c(O)c(O)c1 [CORILAGIN]	40000 nM	
